# Assay results published in US10525148B2, “Systems and methods for preclinical models of metastases” (The Translational Genomics Research Institute, priority 2014, dated 2020).
# Assays:
# [1] = test system: patient-derived xenograft of lung cancer metastasized to the central nervous system (KRAS mutation); assay: Tumor weight of patient-derived xenograft of lung cancer CNS metastasis (FIG. 13); type: in vivo, mice; details: treatment conditions with MEK inhibitor
# Excerpt: Immediately after surgical removal, fresh tissue was collected for heterotopic (flank) injection into NSG mice (NOD scid gamma mice—or mice that are on a NOD/ShiLtJ background with severe combined immune deficiency mutation and the IL2 receptor gamma chain deficiency). Excised patient tissue was placed in a culture dish with medium and minced into small pieces, such that minced tissue suspensions could be drawn through a 16-gauge needle. Minced tissues were placed in a conical tube, media was withdrawn, and matrigel was added to the wet tissue in a 1:1 volume ratio. Approximately 200 μl of the matrigel-tissue mixture was injected subcutaneously into the flanks of two to four mice, and tumors were allowed to develop until the tumors achieved a length of 1.0 to 2.0 cm in the longest dimension. Mice were then sacrificed by CO2 asphyxiation, and their flank tumors were immediately excised. […]
# (§1) Referring next to FIGS. 12 and 13, samples from a different patient (i.e., a patient with lung cancer that metastasized to portions the central nervous system) that were analyzed using some aspects of the instant invention. […] As a result of this analysis, it was determined that a MEK inhibitor (e.g., PD0325901) should be employed in the patient-derived xenograft context to assess potential for therapeutic efficacy.
# [2] = test system: ERK phosphorylation; assay: Immunohistochemistry with anti-phosphorylated ERK antibody (FIG. 14); type: in vivo
# Protocol: FIG. 14 is an immunohistochemistry study of tissue from the patient whose samples were detailed in FIGS. 12 and 13. In this study, an anti-phosphorylated ERK antibody was used to assess ERK phosphorylation in the various treatment conditions.
# Sections were mounted onto a glass slide and stained with reagents designed to detect proteins of interest by IHC staining. This allows samples of many or all of the tumor specimens to be stained at one time. IHC staining was performed to determine the presence or absence of specific proteins and was used to validate potential targets discovered by genome-wide experiments (as previously described).
# as §1
# [3] = test system: PDX from CNS metastasis (spine) of lung adenocarcinoma; assay: Tumor volume of patient-derived xenograft (lung adenocarcinoma spine metastasis) in NSG mice under treatment (FIG. 7, FIG. 8); type: in vivo; details: for tumor growth (tumor volume) during treatment: PDX in NSG mice, daily oral gavage for 18 days, SAHA 100 mg/kg, PD0325901 20 mg/kg, vs vehicle
# Excerpt: Immediately after surgical removal, fresh tissue was collected for heterotopic (flank) injection into NSG mice (NOD scid gamma mice—or mice that are on a NOD/ShiLtJ background with severe combined immune deficiency mutation and the IL2 receptor gamma chain deficiency). Excised patient tissue was placed in a culture dish with medium and minced into small pieces, such that minced tissue suspensions could be drawn through a 16-gauge needle. Minced tissues were placed in a conical tube, media was withdrawn, and matrigel was added to the wet tissue in a 1:1 volume ratio. Approximately 200 μl of the matrigel-tissue mixture was injected subcutaneously into the flanks of two to four mice, and tumors were allowed to develop until the tumors achieved a length of 1.0 to 2.0 cm in the longest dimension. Mice were then sacrificed by CO2 asphyxiation, and their flank tumors were immediately excised. Portions of each excised flank tumor were archived as frozen tissue and as paraffin-embedded tissue following formalin fixation. The remainder of each tumor was dispersed in DMEM, processed as described above and passed by injection into the flank of another NSG mouse.
# In view of these changes in the patient's molecular profile, a treatment model was created. […] For example, in view of the G12C mutation in the KRAS gene and the additional amplification this same gene found in the subject's exome, a MEK inhibitor (i.e., a pharmaceutical that targets the mitogen-activated kinase kinase enzymes MEK1 and MEK2) was selected. In this experiment, the MEK inhibitor selected was PD0325901. In addition, the detection of the HDAC9 amplification drove the selection of a drug that has been previously shown efficacy of epigenetic therapy in metastatic lung cancer, suberanilohydroxamic acid or SAHA, which is a potent HDAC inhibitor.
# After establishing which treatments were to be used in the case study, 15 animals comprising the PDX were divided into three groups. A first group received vehicle only via intraperitoneal injection each day for 18 days. A second group received SAHA (100 mg/kg) via oral gavage each day for 18 days and a third group received PD0325901 (20 mg/kg) each day for 18 days via oral gavage. Both during and after treatment, tumor volume was measured in each of the mice and the data is plotted in FIG. 7.
# Additional experiments were conducted to investigate the potential impact of combination drugs. Referring now to FIG. 8, the drug treatment experiments described above were repeated with an additional pharmaceutical composition, 5-Azacytidine, which is a nucleoside analog that is an FDA-approved treatment for some forms of cancer. […]
# [4] = have been shown; cited from earlier work
SMILES,gains in tumor weight [1],ERK phosphorylation 14 days after treatment ([2]; 14 days after treatment),ERK phosphorylation in the metastasis cells during treatment ([2]; compared to vehicle alone),tumor growth (tumor volume) during treatment ([3]; FIG. 7),"rate of tumor growth after treatment stopped ([3]; after day 18, FIG. 7)",blood-brain barrier penetration [4],"tumor volume growth, single agent and combinations with 5-Azacytidine ([3]; 5-Azacytidine 2.0 mg/kg intraperitoneal, combinations compared to SAHA and PD0325901 alone, FIG. 8)"
O=C(NOC[C@H](O)CO)c1ccc(F)c(F)c1Nc1ccc(I)cc1F [PD0325901],most reduced gains in tumor weight,returned to vehicle-treatment levels,reduced ERK phosphorylation,little to no tumor growth,reduced compared to animals in the SAHA and control groups,blood-brain barrier penetrant,
Nc1ncn([C@@H]2O[C@H](CO)[C@@H](O)[C@H]2O)c(=O)n1 [5-Azacytidine],,,,,,,did not serve as an efficacious treatment
"O=C(CCCCCCC(=O)Nc1ccccc1)NO [SAHA, suberanilohydroxamic acid]",,,,reduced tumor growth,,blood-brain barrier penetrant,
